For 19 molecules, pC results are on record in ChEMBL document CHEMBL1141980, “Novel use of chemical shift in NMR as molecular descriptor: a first report on modeling carbonic anhydrase inhibitory activity and related parameters” (Bioorg Med Chem Lett, 2005).

This data set in a line: Diuretic activity was determined. Format: ADME, tissue-based, Urine. Also on record: reference not given here.

On to `NS(=O)(=O)c1cccc([N+](=O)[O-])c1`, for which the pC is listed as 0.678. `N#Cc1ccc(S(N)(=O)=O)cc1` gave a pC of 1. The figure for `CNc1ccc(S(N)(=O)=O)cc1` is -0.036; for `COc1ccc(S(N)(=O)=O)cc1` it is 0.188. The figure for `NS(=O)(=O)c1ccc(Cl)c(Cl)c1` is 0.243.

As to `NS(=O)(=O)c1ccccc1[N+](=O)[O-]`, the pC is reported as 0.301.

Molecule `NS(=O)(=O)c1ccc([N+](=O)[O-])c(C(F)(F)F)c1` gave a pC of 0.58. Next, `Nc1ccc(S(N)(=O)=O)cc1` [SULFANILAMIDE]: -0.301. As to `NS(=O)(=O)c1ccc(Cl)c([N+](=O)[O-])c1`, the pC amounted to 0.322. Next, `Cc1ccc(S(N)(=O)=O)cc1` [P-TOLUENESULFONAMIDE]: 0.182. Next, `NS(=O)(=O)c1ccccc1` [BENZENESULFONAMIDE]: 0.13; `NS(=O)(=O)c1ccc(Br)cc1`: 0.267; `Cc1ccccc1S(N)(=O)=O`: 0.301.

The molecule `CC(=O)c1ccc(S(N)(=O)=O)cc1` registered a pC of 0.398.

`NS(=O)(=O)c1ccc(Cl)cc1` [P-CHLOROBENZENESULFONAMIDE] showed a pC of 0.286. The figure for `NS(=O)(=O)c1ccc([N+](=O)[O-])cc1` is 0.824; for `Cc1cccc(S(N)(=O)=O)c1` it is 0.176.

As to `NS(=O)(=O)c1cccc(Cl)c1`, the pC stood at 0.292. `NS(=O)(=O)c1ccccc1Cl` had a pC of 0.301.
